Here are results for 2 compounds from paper PMC8880129, “Plant- and Bacteria-Derived Compounds with Anti-Philasterides dicentrarchi Activity” (Pathogens, 2022).

“And” between values parts separate entries of the source, which are not always exact repeats. Equal values may be shown once. Read-outs that look alike come from different tables or passages of the source.

The subject of data set [1] is Philasterides dicentrarchi. The data set can be described thus: Anticiliate activity, ciliates maintained in seawater (LC100, LC50). Format: cell-based. The conditions noted are these: 3 h incubation. On the procedure: All experiments were carried out in triplicate.
In another data set the test system is Gyrodactylus kobayashii. Also on record: method as in doi:10.1016/j.aquaculture.2021.736372. The following applies: exposure to 2.0 μg/mL; cited from earlier work.
The subject of data set [2] is Philasterides dicentrarchi. The data set can be described thus: microbe, parasite or virus in culture. The conditions noted are these: for Ciliate Mortality 3 h (%) / parasites killed after 24 h: 100 μM, culture medium; for Ciliate Mortality 3 h (%): mean ± SD of three replicates; for mortality at 100 µM / GI50 / inhibition at 100 µM: Philasterides dicentrarchi; for Ciliate Mortality 3 h (%) / mortality at 100 µM: 3 h; for mortality at 100 µM: read-out: Ciliate Mortality 3 h (%), 100 μM, 3 h, culture medium, mean ± SD of three replicates; for inhibition at 100 µM: read-out: Growth Inhibition 24 h (%), 100 μM, 24 h, culture medium, mean ± SD of three replicates; for effect on the ciliate (lysis, movement): microscopy observation. On the procedure:
P. dicentrarchi (isolate I1), obtained from an outbreak of scuticociliatosis in cultured turbot in Galicia, was routinely cultured at 18 °C in complete sterile L15 medium (Leibovitz, PAA Laboratories GmbH, 1% salinity, pH 7.2) containing 90 mg/L each of adenosine, cytidine, and uridine, 150 mg/L of guanosine, 5 g/L of glucose, 400 mg/L of L-α-phosphatidylcholine, 200 mg/L of Tween 80, 10% of heat-inactivated foetal bovine serum (FBS), and 10 mL/L of 100X antibiotic–antimycotic solution (100 units/mL of penicillin G, 0.1 mg/mL of streptomycin sulphate and 0.25 mg/mL of amphotericin B), as previously described. Alternatively, ciliates were cultured in seawater with autoclaved marine bacteria (10^6 cells/mL) supplied as food at 21 °C. The ciliates were cultured under normoxic conditions in tissue culture flasks fitted with vented caps that enabled aeration of the culture medium.
We tested the toxicity to P. dicentrarchi of 26 compounds of natural origin (Table 1). The compounds were prepared in 10 mM stock solutions in dimethyl sulfoxide (DMSO) and maintained at −20 °C until use. In addition, the Pseudomonas H6 lipopeptide surfactant (PS) was prepared, lyophilised and stored at −20 °C [37]. A stock solution of PS was prepared in distilled water (1000 ppm) and diluted in culture medium or seawater at the final concentrations used in each assay and sterile filtered (through 0.2 µm filters) before being added to the parasites or EPC cells.
The anticiliate activity was assayed as previously described, with minor modifications. Ciliates were concentrated by centrifugation at 650× g for 5 min and resuspended in a medium at the concentration required for the assays. All experiments were carried out in triplicate. Wells containing ciliates in a culture medium or seawater without the test compounds were assayed as negative controls. To rule out any possible effects of the solvent (DMSO), triplicate wells with a culture medium or seawater containing the highest concentration of DMSO used (up to 1%) were also included. […] In these assays, the compounds were diluted in 1 mL of culture medium or seawater and added to the wells of 24-well sterile culture plates containing 2.5 × 10^4 ciliates per well, at final concentrations of […], 6.25, 12.5, 25, 50, and 100 µM in culture medium. The effects of the compounds on the motility and morphology of the ciliates were monitored periodically (at 30 min, 1, 2, 3, 24, and 48 h) under an inverted optical microscope. Ciliates were considered dead when they lysed and were not motile. The results obtained are expressed as percentage mortality for each experimental group. To estimate the total number of ciliates per well, the ciliates were inactivated by adding 0.25% glutaraldehyde and counted in a haemocytometer under an optical microscope. The lowest dose of the selected compounds resulting in 100% ciliate mortality (LC100) was assessed at 1, 2, and 3 h after incubation of parasites with sample dilutions (from 0 to 100 μg/mL, in 10 μg intervals). The concentration that inhibited 50% of ciliate growth (GI50), in comparison with the control group, was calculated with Excel software (Microsoft Office; Microsoft, Redmond, WA, USA) by plotting the dose-response data (log dose-per cent of growth inhibition) and applying linear regression (y = mx + b) for data fitting. The values were then calculated from the equation log GI50 = (50 − b)/m, where m is the slope y1 − y2/x1 − x2, and b is the intercept of the line.

Data set [3] in a line: Toxicity to EPC cell line, MTT assay. Format: cell-based, fish. The conditions noted are these: fish, compound at its GI50 (24 h), MTT, read-out: EPC Cell Viability (%) Mean ± SD; for viability at 3 h: 3 h incubation; for viability at 24 h: 24 h incubation. The procedure: (§1) We used the Epithelioma Papulosum Cyprini (EPC) cell line, acquired from the American Type Culture Collection (ATCC®, Manassas, VA, USA), as a control for toxicity. The cell line, kindly provided by Doctors Pereira-Dopazo and Bandin from the Aquaculture Institute of the University of Santiago de Coompostela, was cultured in MEM medium equilibrated with Hanks’ balanced salts (Gibco, Thermo Fischer Sci., Waltham, MA, USA) supplemented with 10% foetal bovine serum and 10 mL/L of 100X antibiotic–antimycotic solution. Cells were maintained subconfluent at 25 °C in a cell culture incubator and used when the confluence reached 75%.
(§2) Cell viability was then estimated by the MTT (3-(4,5-dimethylthiazol-2-yl)-2,5-diphenyl tetrazolium bromide) assay, as previously described, with minor modifications. Briefly, 100 μL of the MTT solution (1 mg/mL in phosphate-buffered saline; pH 7.2) was added to each well, and plates were incubated at 25 °C for 4 h. The yellow tetrazolium salt of MTT is reduced by mitochondrial dehydrogenases in metabolically active cells to form insoluble purple formazan crystals, which are then dissolved by the addition of DMSO (50 μL/well). Prior to the addition of MTT or DMSO, the plates were washed, and the supernatant was removed. The absorbance was measured at 540 nm in a microplate reader (Multiskan™, Thermo Fischer Sci., Waltham, MA, USA), and the relative cell viability was expressed as the mean percentage of viable cells relative to untreated cells.
(§3) In the viability assay, the possible effect of DMSO was evaluated for each compound by the inclusion of three replicate wells with MEM medium and the same DMSO concentration as in the medium. […] Control cells with only MEM were also included in the assay.
(Tetrazolium dyes change colour on reduction, which living cells bring about.)

Another data set concerns EPC cells. The data set can be described thus: Toxicity to EPC cell line, MTT assay. Format: cell-based, fish. The following applies: 24 h incubation, compound at its GI50 (24 h). The procedure: as §1, §2, §3
The subject of a further data set is Saprolegnia delica. Also noted: method as in PMID 32154278. The conditions noted are these: 0.1 mM; cited from earlier work.
The test system of the next data set is goldfish. Also noted: method as in doi:10.1016/j.aquaculture.2021.736372. The conditions noted are these: cited from earlier work.
A further data set concerns Amyloodinium ocellatum. Also noted: method as in PMID 32154278. The following applies: 24 h incubation period; cited from earlier work.
For a further data set, the system named is S. parasitica. Also on record: method as in PMID 32154278. The conditions noted are these: 0.1 mM; cited from earlier work.
The next data set has as its system rainbow trout. Also noted: method as in PMID 17979099. The following applies: 100 to 2000 ppm in the diet for four weeks; cited from earlier work.
Where [4] appears, read: 24 h, read-out: GI50 24 h (compound concentration that inhibited 50% of parasite growth).
Where [5] appears, read: 48 h, read-out: GI50 48 h (compound concentration that inhibited 50% of parasite growth).

What is called mortality is the share of the test organisms that died. For orientation: inhibition means the relative decrease from the control value, in per cent. For orientation: viability means the share of living cells, or the viability signal relative to a control. As to `CC1=CC(=O)c2c(O)cccc2C1=O` [Plumbagin], the “LC100 (lowest concentration resulting in 100% ciliate mortality)” value in data set [1] stood at 30 µM. Moreover, the “time to complete death of Gyrodactylus kobayashii” value in the data set with Gyrodactylus kobayashii is no more than 45 min. Besides, in [2], the “Ciliate Mortality 3 h (%)” value was 100%; the mortality at 100 µM is greater than 90%; the “effect on the ciliate (lysis, movement)” value is “inhibited the ciliate movement, but it did not cause cell lysis for several hours”. In data set [2] (24 h), the “parasites killed after 24 h” value is listed as “killed all the parasites” and the inhibition at 100 µM was 100%. Besides, the GI50 in data set [2] (setting [4]) was 12.9 ± 1.16 µM. Also, the GI50 in [2] (24 h, read-out: GI50 24 h expressed in μg/mL) came to 2.42 µg/mL. In [2] (setting [5]), the GI50 was determined as 9.65 ± 0.67 µM. Besides, in [3], the viability at 3 h is 78.7 ± 1.4% and the viability at 24 h amounted to 74.2 ± 3.94%. This compound also showed an EPC cells killed in the data set on EPC cells of 26%. Also, the “growth of Saprolegnia delica” value in the data set on Saprolegnia delica was “inhibiting”. Besides, in the data set with goldfish, the “concentration toxic to goldfish” value is given as “higher than 0.5 mg/L”.
In the case of `C[C@H]1CC[C@]2(NC1)O[C@H]1C[C@H]3[C@@H]4CC[C@H]5C[C@@H](O[C@@H]6O[C@H](CO)[C@H](O[C@@H]7O[C@H](CO)[C@@H](O)[C@H](O[C@@H]8OC[C@@H](O)[C@H](O)[C@H]8O)[C@H]7O[C@@H]7O[C@H](CO)[C@@H](O)[C@H](O)[C@H]7O)[C@H](O)[C@H]6O)CC[C@]5(C)[C@H]4CC[C@]3(C)[C@H]1[C@@H]2C` [Tomatine], the “LC100 (lowest concentration resulting in 100% ciliate mortality)” value in data set [1] is 10 µM. Moreover, in data set [2], the “Ciliate Mortality 3 h (%)” value was 93.33 ± 2.31%; the mortality at 100 µM was greater than 90%; the “effect on the ciliate (lysis, movement)” value was “very quick lysis of the ciliate”. Moreover, in [2] (24 h), the “parasites killed after 24 h” value is reported as “killed all the parasites” and the inhibition at 100 µM is 100%. Besides, the GI50 in [2] (setting [4]) is 10.1 ± 1.27 µM. Also, in data set [2] (setting [5]), the GI50 came to 8.51 ± 0.2 µM. For the same compound, in data set [3], the viability at 3 h was 63 ± 6.82% and the viability at 24 h came to 57.6 ± 7.7%. The same compound registered an EPC cells killed in the data set with EPC cells of 43%. Moreover, the “growth of Saprolegnia delica” value in the data set with Saprolegnia delica is on record as “inhibited”. In addition, the “doses inhibiting dinospore motility” value with Amyloodinium ocellatum is 6.25–50 μg/mL and 0.006–0.05 mM. For the same compound, the “radial growth of S. parasitica” value in the data set on S. parasitica is listed as “inhibited”. Also, the “toxic effects of administration in the diet” value in the data set on rainbow trout is recorded as “did not have toxic effects”.
